{
  "source": "patent US6368788B1",
  "about": "(priority 1987, dated 2002)",
  "key": {"[1]": {"tested_on": "Staphylococci", "test": "Antibiotic sensitivity (doubling-dilution, MIC-2000) of patient isolates before and after Stage 1", "format": "cell-based", "protocol": "Antibiotics were administered according to established dosages and routes: i.e., penicillin, Ampicillin, oxacillin, tetracycline, erythromycin, garamycin; administered by intramuscular route. Antibiotics were chosen according to the antibiotic sensitivity of the Staphylococci isolated from the respective patients. (Antibiotic sensitivity was determined by testing staphylococcal isolates for their sensitivity in an antibiotic sensitivity doubling-dilution assay with the aid of the semi-automatic MIC-2000 system, Dynatech, USA).\nStaphylococci were isolated from patients before and after treatment in Stage 1 with L-Glu-L-Trp in order to determine whether a favorable reversal of T-lymphocyte immunodeficiency might lead to a change in the antibiotic sensitivity. The isolated bacterial colonies following Stage I were typed as follows: namely, in 16 patients S. aureus, in 34, S. epidermidis, in 2 saprophytic Staphylococci. In all cases the same types of Staphylococci were isolated following treatment with L-Glu-L-Trp, but in 4 patients the predominant Staphylococci in the isolates changed from S. aureus to S. epidermidis (n=2), and saprophytic Staphylococci (n=2).\nAntibiotic sensitivity of Staphylococci were determined by doubling-dilution methods with the aid of the semiautomatic MIC-2000 system (Dynatech, USA)."}, "[2]": {"tested_on": "Pseudomonas aeruginosa", "test": "Survival after acute peritonitis with LD100 dose of Pseudomonas aeruginosa", "format": "in vivo, mice", "conditions": "1 MED"}, "[3]": {"tested_on": "YAC-1 target cells", "test": "NK cytotoxic activity of splenocytes on YAC-1 target cells", "format": "in vivo, C3H/HeJ mice"}, "[4]": {"tested_on": "Staphylococcus aureus", "test": "Survival after Staphylococcus aureus peritonitis, therapeutic treatment 1 hour after challenge", "format": "in vivo, mice", "conditions": "1 MED", "protocol": "EXAMPLES 32-34, above, test substance (i.e., L-Glu-L-Trp alone or in combination with antibiotic, or antibiotic alone) was injected sc, ip, po one hour after the bacterial challenge."}, "[5]": {"tested_on": "Staphylococcus aureus", "test": "Survival after acute peritonitis with LD100 dose of antibiotic-resistant Staphylococcus aureus, prophylactic treatment", "conditions": "for Percentage Survivors: 1 MED"}, "[6]": {"tested_on": "E. coli", "test": "Survival after acute peritonitis with LD100 dose of E. coli", "format": "in vivo, mice", "conditions": "1 MED"}, "[7]": {"tested_on": "C. albicans", "format": "in vivo, mice"}, "[8]": {"conditions": "After Stage 1 Treatment (L-Glu-L-Trp only)"}},
  "note": "Read-outs that look alike come from different tables or passages of the source. Marks after values point to notes of the source that are not given here.",
  "data": [
    {"compound": "Gentamycin [reference compound]", "values": [
      {"measurement": "Mean minimum inhibitory concentration (MIC)", "setting": "[1]; [8]", "result": "1.32 ± 0.49", "unit": "µg/mL"},
      {"measurement": "Mean minimum inhibitory concentration (MIC)", "setting": "[1]; Before Treatment", "result": "5.47 ± 0.92", "unit": "µg/mL"},
      {"measurement": "Percentage Survivors", "setting": "[2]; 24 hours after injection", "result": "27.8* %"},
      {"measurement": "Percentage Survivors", "setting": "[2]; 48 hours after injection", "result": "27.8* %"},
      {"measurement": "Percentage Survivors", "setting": "[2]; 96 hours after injection", "result": "27.8* %"}
    ]},
    {"compound": "O=P1(N(CCCl)CCCl)NCCCO1", "note": "(stereo not shown) [cyclophosphamide, Cyclophosphamide, reference compound]", "values": [
      {"measurement": "% Cytotoxicity (mean +/− S.D.)", "setting": "[3]; dose 50 (μg/kg), reference treatment", "result": "6.4 ± 0.7", "unit": "%"},
      {"measurement": "Cytotoxicity Change (%)", "setting": "[3]; dose 50, vs saline", "result": "−25 ↓ %"},
      {"measurement": "NK activity", "setting": "[3]; reference treatment", "result": "decreased NK activity"}
    ]},
    {"compound": "CC1(C)S[C@@H]2[C@H](NC(=O)[C@H](N)c3ccccc3)C(=O)N2[C@H]1C(=O)O", "note": "[Ampicillin, reference compound]", "values": [
      {"measurement": "Percentage Survivors", "setting": "[4]; 24 hours", "result": "75.0* %"},
      {"measurement": "Percentage Survivors", "setting": "[4]; 48 hours", "result": "44.4* %"},
      {"measurement": "Percentage Survivors", "setting": "[4]; 72 hours", "result": "30.6* %"},
      {"measurement": "Mean minimum inhibitory concentration (MIC)", "setting": "[1]; [8]", "result": "2.64 ± 0.60", "unit": "µg/mL"},
      {"measurement": "Mean minimum inhibitory concentration (MIC)", "setting": "[1]; Before Treatment", "result": "8.10 ± 0.49", "unit": "µg/mL"},
      {"measurement": "Percentage Survivors", "setting": "[5]; 24 hours", "result": "75* %"},
      {"measurement": "Percentage Survivors", "setting": "[5]; 48 hours", "result": "44.4* %"},
      {"measurement": "Percentage Survivors", "setting": "[5]; 72 hours", "result": "30.6* %"},
      {"measurement": "Mean effective dose (MED) for 100% survival after one LD50 dose of methicillin-sensitive staphylococci", "setting": "[5]; ip one hour after bacterial challenge", "result": 100, "unit": "mg/kg"},
      {"measurement": "Percentage Survivors", "setting": "[6]; 24 hours after injection", "result": "33.3* %"},
      {"measurement": "Percentage Survivors", "setting": "[6]; 48 hours after injection", "result": "22.2* %"},
      {"measurement": "Percentage Survivors", "setting": "[6]; 72 hours after injection", "result": "22.2* %"}
    ]},
    {"compound": "C[C@@H]1[C@H](O)[C@@H](C)/C=C/C=C/C=C/C=C/C=C/C=C/C=C/[C@H](O[C@@H]2O[C@H](C)[C@@H](O)[C@H](N)[C@@H]2O)C[C@@H]2O[C@](O)(C[C@@H](O)C[C@@H](O)[C@H](O)CC[C@@H](O)C[C@@H](O)CC(=O)O[C@H]1C)C[C@H](O)[C@H]2C(=O)O", "note": "[Amphotericin, reference compound]", "values": [
      {"measurement": "Germ Tube (%)", "setting": "[7]; 0.063 mg/kg", "result": "20* %"},
      {"measurement": "Germ Tube (%)", "setting": "[7]; 0.125 mg/kg", "result": "17* %"},
      {"measurement": "Germ Tube (%)", "setting": "[7]; 0.25 mg/kg", "result": "14* %"},
      {"measurement": "Germ Tube (%)", "setting": "[7]; 0.5 mg/kg", "result": "3* %"},
      {"measurement": "Germ Tube (%)", "setting": "[7]; 1 mg/kg", "result": "1* %"}
    ]}
  ]
}
